Values of other authors as cited in patent US20220023238A1, “Process of Manufacturing a Stable, Ready to Use Infusion Bag for an Oxidation Sensitive Formulation” (InnoPharma, Inc., priority 2016, published 2022).

Key:
[1] = six adult volunteers, intravenous vs oral
[2] = intravenous, therapeutic dosing up to 4,000 mg daily

CC(=O)Nc1ccc(O)cc1 [acetaminophen, N-(4-hydroxy-phenyl)acetamide]
mean intravenous Cmax compared to oral route [1]: two | hepatotoxicity [2]: rarely associated with hepatotoxicity
